Laboratory results reported in US20240043435A1, “TYK-2 INHIBITOR” (BEIGENE, LTD., priority 2020, published 2024).

Columns and labels:
[1] = molecular target: T1, TYK2-JH2 (aa 575-869, in-house) protein (Homo sapiens, UniProt P29597); experiment: TYK2-JH2 biochemical assay (HTRF probe displacement); type: binding; settings: Biochemical assay; read-out: TYK2-JH2 IC50
T1 construct: TYK2-JH2 (aa 575-869, in-house) protein; made in house
Protocol: Assay A: TYK2-JH2 Biochemical Assay
Compounds disclosed herein were tested for blocking of TYK2-JH2 (aa 575-869, in-house) protein with its probe in an assay based on Homogeneous Time Resolved Fluorescence. Compound dilution is done according to the following protocol: (1) Prepare 500× compounds solution in DMSO from 500 uM by 5-fold dilution, total 10 doses were included; (2) Prepare 10× compounds solution in an assay buffer containing 20 mM HEPES, pH 7.5, 10 mM MgCl2, 0.005% BSA, 2 mM DTT, 0.015% Brij-35 by transferring 1 μl serial 500× stock solution into 49 μl assay buffer. […] of 0.2 nM recombinant TYK2-JH2 protein was pre-incubated with 1 μl of 10× serial dilution of compounds at room temperature for 0.5 hour. […] The HTRF signals (ex337 nm, em620 nm/665 nm) were read on BMG PHERAstar FS instrument. The inhibition percentage of TYK2 interaction with its probe in presence of increasing concentrations of compounds was calculated based on the ratio of fluorescence at 615 nm to that at 665 nm. The IC50 for each compound was derived from fitting the data to the four-parameter logistic equation by Dotmatics.

[2] = system: JAK2, TYK2/p-STAT4 (Tyr693) activated by IL-12 in NK-92 cell line; experiment: IL-12-JAK2, TYK2/p-STAT4 (Tyr693) inhibition IC50 cellular assay; type: cell-based; settings: for IC50: NK92, Cellular assay, read-out: pSTAT4/IL-12 IC50
Excerpt: Assay C: IL-12-JAK2, TYK2/p-STAT4 (Tyr693) Inhibition IC50 Cellular Assay
To evaluate the inhibition effect of compounds disclosed herein on JAK2, TYK2/p-STAT4 (Tyr693) activated by IL-12 in NK-92 cell line, NK-92 cells were collected and washed 3 times by DPBS and resuspended in MEM-α (GIBCO, Cat #12561056) with 10% FBS (Gibco, Cat #10099, Lot #1891605), without IL-2 (R&D systems, Cat #202-IL), starved overnight. Cells were collected and resuspended in 1640 medium (phenol red free, Gibco, Cat #11835-030) with 0.1% BSA, and 12.5 μl/5×10^4/well cell suspension were seeded to the 96-well plate (Corning, Cat #3799). Then cells were treated with compounds diluted in 0.2% DMSO 1640 medium, at 37° C., 1 h. Dilution is done according to the following protocol: (1) make 500× compounds solution in DMSO from 5 mM by 4-fold dilution, total 8 doses were included; (3) make 2× compounds solution in assay medium by transferring 0.5 μl serial 500× stock solution into 125 μl assay medium; (4) 15 μl of 2× serial solution is added to cells and incubate at 37° C. for 1 h, the final compound conc. is 10000, 2500, 625, 156.25, 39, 9.8, 2.4 and 0.61 nM, respectively. After 1 h, cells were treated with 2.5 μl medium containing IL-12 at 37° C. (R&D systems, Cat #219-IL-005, final conc. 40 ng/ml), 30 min. Following cells were lysed with 7.5 μl lysis buffer at RT, shaking on shaker for 1 h. 10 μL of cell lysate were transferred to a PE 384-well Proxiplate detection plate, and 5 μL of pre-mixed Alphascreen beads were added to each well. Covered the plate with a plate sealer, span 1000 rpm for 1 min, mix, Incubated overnight at room temperature. Read on BMG PheraStar with Alphascreen protocol. IC 50 values were calculated by fitting dependent data to the four-parameter logistic model using dotmatics software. The assay was performed by using AlphaLISA SureFire Ultra p-STAT4 (Tyr693) Assay Kit—High Volume (PE, Cat #ALSU-PST4-A-HV).

[3] = system: pSTAT5/GM-CSF; experiment: pSTAT5/GM-CSF cellular assay (JAK2 selectivity); type: cell-based; settings: for Selectivity fold (TYK2/JAK2): pSTAT5/GM-CSF IC50 over pSTAT4/IL-12 IC50

T1 sequence (P29597 575-869): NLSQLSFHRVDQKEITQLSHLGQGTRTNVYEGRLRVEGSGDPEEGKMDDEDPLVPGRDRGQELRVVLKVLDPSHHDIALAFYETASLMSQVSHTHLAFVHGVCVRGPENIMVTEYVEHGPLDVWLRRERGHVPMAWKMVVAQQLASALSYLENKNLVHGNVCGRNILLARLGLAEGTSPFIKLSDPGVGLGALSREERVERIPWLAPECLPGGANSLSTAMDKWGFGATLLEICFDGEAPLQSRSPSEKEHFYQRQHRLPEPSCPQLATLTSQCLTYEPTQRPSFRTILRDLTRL

SMILES | IC50 [1] [nM] | IC50 [2] [nM] | IC50 [3] [µM] | Selectivity fold (TYK2/JAK2) ([2]; Cellular assay, pSTAT5/GM-CSF IC50 vs pSTAT4/IL-12 IC50) [fold] | Selectivity fold (TYK2/JAK2) [3] [fold]
COC(C)c1cc(Nc2cc(NC(C)=O)ncc2-c2ccc(N3C[C@@H](C)O[C@@H](C)C3)cn2)nc(S(C)(=O)=O)c1 (single isomer, unassigned) [Example C19, N-(5-((cis)-2,6-dimethylmorpholino)-4′-((4-((R or S)-1-methoxyethyl)-6-(methylsulfonyl)pyridin-2-yl)amino)-[2,3′-bipyridin]-6′-yl)acetamide] | 0.023 | – | – | – | –
COC(C)c1cc(Nc2cc(NC(C)=O)ncc2-c2ccc(N3C[C@@H](C)O[C@@H](C)C3)cn2)nc(S(C)(=O)=O)c1 (single isomer, unassigned) [Example C20, N-(5-((cis)-2,6-dimethylmorpholino)-4′-((4-((R or S)-1-methoxyethyl)-6-(methylsulfonyl)pyridin-2-yl)amino)-[2,3′-bipyridin]-6′-yl)acetamide] | 0.023 | – | – | – | –
CC(=O)Nc1cc(Nc2cccc(S(C)(=O)=O)n2)c(-c2cnn(C)c2)cn1 [Example A8, N-(5-(1-methyl-1H-pyrazol-4-yl)-4-((6-(methylsulfonyl)pyridin-2-yl)amino)pyridin-2-yl)acetamide] | 0.26 | – | – | – | –
CC(=O)Nc1cc(Nc2cc(OC(C)C)cc(S(C)(=O)=O)n2)c(-n2ccnc2)cn1 [Example A18, N-(5-(1H-imidazol-1-yl)-4-((4-isopropoxy-6-(methylsulfonyl)pyridin-2-yl)amino)pyridin-2-yl)acetamide] | 8.15 | – | – | – | –
CC(=O)Nc1cc(Nc2nc(S(C)(=O)=O)ccc2C2CCOCC2)c(-c2ccc3c(n2)OCC(C)(C)O3)cn1 [Example Q90, N-(5-(2,2-dimethyl-2,3-dihydro-[1,4]dioxino[2,3-b]pyridin-6-yl)-4-((6-(methylsulfonyl)-3-(tetrahydro-2H-pyran-4-yl)pyridin-2-yl)amino)pyridin-2-yl)acetamide] | – | 44 | > 10 | – | >227
CC(=O)Nc1cc(Nc2cc(-c3ccc(C#N)nc3)cc(S(C)(=O)=O)n2)c(-c2ccc3c(n2)OCC(C)(C)O3)cn1 [Example Q108, N-(4-((6-cyano-6′-(methylsulfonyl)-[3,4′-bipyridin]-2′-yl)amino)-5-(2,2-dimethyl-2,3-dihydro-[1,4]dioxino[2,3-b]pyridin-6-yl)pyridin-2-yl)acetamide] | – | 1.18 | > 10 | – | >8474
CC(=O)Nc1cc(Nc2cc(-c3nccnc3C)cc(S(C)(=O)=O)n2)c(-c2ccc3c(n2)OCC(C)(C)O3)cn1 [Example Q110, N-(5-(2,2-dimethyl-2,3-dihydro-[1,4]dioxino[2,3-b]pyridin-6-yl)-4-((4-(3-methylpyrazin-2-yl)-6-(methylsulfonyl)pyridin-2-yl)amino)pyridin-2-yl)acetamide] | – | 1.08 | > 10 | – | >9259

The next lines start with results.

IC50 [1] [nM] | IC50 [2] [nM] | IC50 [3] [µM] | SMILES | Selectivity fold (TYK2/JAK2) ([2]; Cellular assay, pSTAT5/GM-CSF IC50 vs pSTAT4/IL-12 IC50) [fold] | Selectivity fold (TYK2/JAK2) [3] [fold]
0.08 | – | – | CC(=O)Nc1cc(Nc2cc(C)cc(S(C)(=O)=O)n2)c(-c2ccn(CC(=O)N3CCOCC3)n2)cn1 [Example A13, N-(4-((4-methyl-6-(methylsulfonyl)pyridin-2-yl)amino)-5-(1-(2-morpholino-2-oxoethyl)-1H-pyrazol-3-yl)pyridin-2-yl)acetamide] | – | –
– | 1.21 | > 10 | COCCOc1cc(Nc2cc(NC(C)=O)ncc2-c2ccccn2)nc(S(C)(=O)=O)c1 [Example B6, N-(4′-((4-(2-methoxyethoxy)-6-(methylsulfonyl)pyridin-2-yl)amino)-[2,3′-bipyridin]-6′-yl)acetamide] | >8264 | –
– | 3.29 | > 10 | CC(=O)Nc1cc(Nc2cc(N3CCC4(CC4)C3)cc(S(C)(=O)=O)n2)c(-c2ccc3c(n2)OCC(C)(C)O3)cn1 [Example Q97, N-(5-(2,2-dimethyl-2,3-dihydro-[1,4]dioxino[2,3-b]pyridin-6-yl)-4-((6-(methylsulfonyl)-4-(5-azaspiro[2.4]heptan-5-yl)pyridin-2-yl)amino)pyridin-2-yl)acetamide] | – | >3039
